Experimental data taken from paper PMC4474090 (Journal of pharmaceutical sciences, 2012).
pIC50: −log10 of the molar value.

Experiments:
[1] = test system: ICAM-1/LFA-1-mediated heterotypic T-cell adhesion; experiment: Inhibition of ICAM-1/LFA-1-mediated heterotypic T-cell adhesion; assay type: cell-based; conditions: compared with CH7
[2] = test system: ICAM-1/LFA-1-mediated heterotypic T-cell adhesion; conditions: compared with cIBR; cited from earlier work
[3] = test system: rat adjuvant arthritis model; experiment: Suppression of RA in rat adjuvant arthritis model; assay type: in vivo
[4] = test system: rat adjuvant arthritis model; assay type: in vivo
[5] = test system: Molt-3 T cells; conditions: read-out: cytotoxicity IC50; LFA-1-expressing Molt-3 T cells; cited from earlier work
[6] = test system: KB epithelial cells; conditions: read-out: toxicity IC50; cited from earlier work
[7] = 0.05 mg/kg i.v. once a day, Day 14

cyclo(1,6)PRGGKV [CHK7]
cell adhesion inhibitory activity [1]: lower cell adhesion inhibitory activity than the parent CH7

cyclo(1,6)PRGGSV [CH7]
activity in inhibiting ICAM-1/LFA-1-mediated heterotypic T-cell adhesion [2]: activity comparable to that of cIBR

CN(Cc1cnc2nc(N)nc(N)c2n1)c1ccc(C(=O)N[C@@H](CCC(=O)O)C(=O)O)cc1 [MTX, Methotrexate]
AUC Paw Ankle Diameter ± SE [3, 7]: 2.388 ± 0.028 | Bone Resorption Score ± SE [3, 7]: 3.1 ± 0.4 | Inflammation Score ± SE [3, 7]: 4.9 ± 0.1 | ankle histology: bone resorption ([3]; 0.05 mg/kg, day 14, H&E): Moderate bone resorption was present across the physis | ankle histology: synovitis and periarticular inflammation ([3]; 0.05 mg/kg, day 14, H&E): severe synovitis (S) and periarticular inflammation | Paw Weight ± SE ([3]; arthritis rats, 0.05 mg/kg i.v. once a day day 0-14, Day 14): 3.5790 ± 0.0877 g | spleen histology: pyogranulomatous inflammation ([4]; 0.05 mg/kg): multi-focal small areas of pyogranulomatous inflammation | animal body weight ([4]; arthritis animals, 0.05 mg/kg, days 0-14): lost weight after day 8 | Rat Liver Weight ± SE ([4]; arthritis rats, 0.05 mg/kg i.v. once a day, Day 14): 6.1289 ± 0.1451 g | pIC50 [5]: 7.21 | pIC50 [6]: 7.57
